Common to all, as to experiment: inhibition of tumour cell growth, NCI panel, 48 h
The subject of experiment [1] is 786-0 renal.
The test system of experiment [2] is EKVX NSCLC.
The test system of experiment [3] is OVCAR-3 ovarian.
Experiment [4] deals with OVCAR-4 ovarian.
For experiment [5], the system named is PC-3 prostate.
The test system of experiment [6] is SK-MEL-2 melanoma.
Experiment [7] concerns SR leukemia.
Experiment [8] has as its system T-47D breast.
Experiment [9] concerns TK-10 renal.
Experiment [10] has as its system UACC-62 melanoma.

Where “and” joins values, the source holds several entries; their conditions need not be identical. Equal values may be shown once.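 Cultured in 96-well plates, cells were exposed to test compound for 48 hours across five concentrations. GI50 marks 50% less growth. Definition used: TGI = concentration required for complete inhibition of growth.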

For `Cc1ncnc2c1ccn2[C@@H]1C[C@H](Oc2cc(C(F)F)c(F)c3c2CNCC3)[C@@H](O)[C@H]1O`, the GI50 in experiment [1], in experiment [2], in experiment [3], in experiment [4], in experiment [5] and in experiment [6] was over 100 µM each time. Besides, the GI50 in [7], in experiment [8], in [9] and in [10] was over 100 µM throughout. Besides, the TGI in experiment [1], in experiment [2], in experiment [3], in experiment [4], in experiment [5] and in [6] was over 100 µM throughout. Also, the TGI in [7], in experiment [8], in experiment [9] and in experiment [10] was over 100 µM throughout.

Consider `CN1CCC(=C(c2ccc(Cl)cc2)c2ccccn2)CC1`, for which the GI50 in experiment [1] was over 100 µM; in experiment [2], over 100 µM; in experiment [3], over 100 µM; in experiment [4], over 100 µM; in [5], 80.5 µM; in experiment [6] it was over 100 µM. Further, the GI50 is over 100 µM in [7], over 100 µM in [8], over 100 µM in experiment [9] and 33.3 µM in experiment [10]. The TGI in experiment [1], in experiment [2], in experiment [3], in experiment [4], in experiment [5] and in experiment [6] was over 100 µM throughout. The TGI in experiment [7], in experiment [8], in experiment [9] and in experiment [10] was over 100 µM each time.

With `N#CC(Cl)CS(=O)(=O)c1ccccc1` (stereo not drawn), the TGI in experiment [1] was found to be 30.5 µM; in experiment [2] it was 38.6 µM; in [3] it was 7.17 µM; in [4], 4.24 µM; in [5] it was 31.6 µM; in [6], 33 µM. For the same compound, the TGI in [7] was found to be 12.1 µM; in experiment [8] it was 6.06 µM; in experiment [9], 6.85 µM; in experiment [10], 26.5 µM.

With `CC[C@@]1(O)C(=O)OCc2c1cc1n(c2=O)Cc2cc3cc(O)ccc3nc2-1`, the TGI in experiment [1] is 0.9 µM; in experiment [3] it was 0.301 µM and 0.228 µM; in experiment [4] it was 0.441 µM and 3.17 µM; in experiment [5], over 100 µM; in experiment [6], 2.15 µM and 1.2 µM; in experiment [7], 2.14 µM. Besides, the TGI in [8] is over 100 µM; in [9] it was 44.9 µM; in experiment [10], 0.0795 µM and 0.0565 µM. In addition, the GI50 in [2] is 0.107 µM and 0.903 µM; in [3], 0.069 µM and 0.0368 µM; in experiment [4] it was 0.224 µM; in experiment [6], 0.174 µM.

With `CC1(C)CCC2(C(=O)O)C(O)CC3(C)C(=CCC4C5(C)CCC(OC6OCC(O)C(O)C6OC6OCC(O)C(O)C6OC6OCC(O)C(OC7OC(CO)C(O)C(O)C7O)C6O)C(C)(C)C5CCC43C)C2C1` (stereo not drawn), the TGI in experiment [1] is over 100 µM; in experiment [2], over 100 µM; in experiment [3], over 100 µM; in experiment [4], 88.7 µM; in [5], over 100 µM; in experiment [6] it was 76.3 µM. In addition, the TGI is 37.9 µM in experiment [7], over 100 µM in [8], over 100 µM in experiment [9] and over 100 µM in experiment [10].

For `CCN(CC)Cc1cc(Nc2ccnc3ccc(OC)cc23)ccc1O`, the GI50 is 4.67 µM in experiment [1]; 5.16 µM in experiment [2]; 3.2 µM in [3]; 2.54 µM in experiment [4]; 4.49 µM in experiment [5]; 2.94 µM in experiment [6]. Also, the GI50 is 2.85 µM in [7], 5.69 µM in experiment [8], 3.1 µM in experiment [9] and 5.78 µM in experiment [10]. The TGI worked out at 18.8 µM in experiment [1]; 38.8 µM in [2]; 20.4 µM in experiment [3]; 11.6 µM in [4]; 31.6 µM in [5]; 5.5 µM in experiment [6]. In addition, the TGI in experiment [7] amounted to 7.77 µM; in experiment [8], 44.7 µM; in [9], 8.43 µM; in experiment [10] it was 20.9 µM.

For `O=C(O)C1CC[N-]CC1.O=C(O)C1CC[N-]CC1.[NH2-].[NH2-].[Pt+4]`, the GI50 in [1], in [2], in experiment [3], in [4], in [5] and in experiment [6] was over 100 µM in each case. The GI50 in [7], in [8], in experiment [9] and in experiment [10] was over 100 µM each time. The TGI in experiment [1], in [2], in experiment [3], in [4], in experiment [5] and in experiment [6] was over 100 µM in each case. Also, the TGI in experiment [7], in experiment [8], in [9] and in experiment [10] was over 100 µM each time.
